# From patent publication EP4635500A1, “THERAPEUTIC AGENT FOR BACTERIAL INFECTION” (Sumitomo Pharma Co., Ltd., priority 2022, dated 2024)
# Where two headings read alike, the source gives them in different places.
# Key:
# 53 CRE and CPE strains = test: MICrange, MIC50, MIC80, MIC90 for 53 bacterial isolates (Example 5, Table 5); type: cell-based; conditions: 53 bacterial isolates
# Enterobacterales = test: MIC, broth microdilution, CDC/FDA Antibiotic Resistance Isolate Bank (Example 7, Tables 8, 11, 12); type: cell-based; conditions: read-out: MIC
structure (smiles),measurement,setting,value
"C[C@H]1COc2c(N3CCN(C)CC3)c(F)cc3c(=O)c(C(=O)O)cn1c23 [Levofloxacin, levofloxacin]",MIC50,53 CRE and CPE strains; read-out: MIC50,16 µg/mL
same,MIC80,53 CRE and CPE strains; read-out: MIC80,64 µg/mL
same,MIC90,53 CRE and CPE strains; read-out: MIC90,64 µg/mL
same,MIC,"Enterobacterales; Citrobacter freundii, KUB No. 5654, AR Bank # 157",> 64 µg/mL
same,MIC,"Enterobacterales; Enterobacter cloacae, Enterobacter cloacae KUB No. 5792, AR Bank #448",> 64 µg/mL
same,MIC,"Enterobacterales; Enterobacter cloacae, Enterobacter cloacae KUB No. 5807, AR Bank #501",1 µg/mL
same,MIC,"Enterobacterales; Enterobacter cloacae, Enterobacter cloacae KUB No. 5808, AR Bank #502",8 µg/mL
same,MIC,"Enterobacterales; Enterobacter cloacae, Enterobacter cloacae complex, KUB No. 5661, AR Bank # 164",0.12 µg/mL
same,MIC,"Enterobacterales; Enterobacter cloacae, Enterobacter cloacae group, KUB No. 5629, AR Bank # 132",0.06 µg/mL
same,MIC,"Enterobacterales; Enterobacter cloacae, KUB No. 5529, AR Bank# 32",1 µg/mL
same,MIC,"Enterobacterales; Enterobacter cloacae, KUB No. 5535, AR Bank# 38",64 µg/mL
same,MIC,"Enterobacterales; Enterobacter cloacae, KUB No. 5547, AR Bank# 50",8 µg/mL
same,MIC,"Enterobacterales; Enterobacter cloacae, KUB No. 5550, AR Bank# 53",32 µg/mL
same,MIC,"Enterobacterales; Enterobacter cloacae, KUB No. 5557, AR Bank# 60",0.06 µg/mL
same,MIC,"Enterobacterales; Enterobacter cloacae, KUB No. 5660, AR Bank # 163",32 µg/mL
same,MIC,"Enterobacterales; Enterobacter cloacae, KUB No. 5761, AR Bank # 365",4 µg/mL
same,MIC,"Enterobacterales; Enterobacter cloacae, KUB No. 5762, AR Bank # 366",0.5 µg/mL
same,MIC,"Enterobacterales; Enterobacter cloacae, KUB No. 5763, AR Bank # 367",1 µg/mL
same,MIC,"Enterobacterales; Enterobacter cloacae, KUB No. 5778, AR Bank # 432",0.12 µg/mL
same,MIC,"Enterobacterales; Enterobacter cloaccae, KUB No. 5651, AR Bank # 154",1 µg/mL
same,MIC,"Enterobacterales; Enterobacter clooreae, KUB No. 5633, AR Bank # 136",16 µg/mL
same,MIC,"Enterobacterales; Escherichia coli, Escherichia coli KUB No. 5783, AR Bank #437",32 µg/mL
same,MIC,"Enterobacterales; Escherichia coli, Escherichia coli KUB No. 5794, AR Bank #450",0.12 µg/mL
same,MIC,"Enterobacterales; Escherichia coli, Escherichia coli KUB No. 5795, AR Bank #451",32 µg/mL
same,MIC,"Enterobacterales; Escherichia coli, Escherichia coli KUB No. 5796, AR Bank #452",64 µg/mL
same,MIC,"Enterobacterales; Escherichia coli, Escherichia coli KUB No. 5803, AR Bank #861",16 µg/mL
same,MIC,"Enterobacterales; Escherichia coli, KUB No. 5601, AR Bank # 104",16 µg/mL
same,MIC,"Enterobacterales; Escherichia coli, KUB No. 5611, AR Bank # 114",32 µg/mL
same,MIC,"Enterobacterales; Escherichia coli, KUB No. 5615, AR Bank # 118",32 µg/mL
same,MIC,"Enterobacterales; Escherichia coli, KUB No. 5616, AR Bank # 119",32 µg/mL
same,MIC,"Enterobacterales; Escherichia coli, KUB No. 5625, AR Bank # 128",32 µg/mL
same,MIC,"Enterobacterales; Escherichia coli, KUB No. 5634, AR Bank # 137",64 µg/mL
same,MIC,"Enterobacterales; Escherichia coli, KUB No. 5646, AR Bank # 149",8 µg/mL
same,MIC,"Enterobacterales; Escherichia coli, KUB No. 5647, AR Bank # 150",32 µg/mL
same,MIC,"Enterobacterales; Escherichia coli, KUB No. 5648, AR Bank # 151",32 µg/mL
same,MIC,"Enterobacterales; Escherichia coli, KUB No. 5659, AR Bank # 162",32 µg/mL
same,MIC,"Enterobacterales; Escherichia coli, KUB No. 5764, AR Bank # 368",0.06 µg/mL
same,MIC,"Enterobacterales; Escherichia coli, KUB No. 5765, AR Bank # 369",0.06 µg/mL
same,MIC,"Enterobacterales; Escherichia coli, KUB No. 5766, AR Bank # 370",16 µg/mL
same,MIC,"Enterobacterales; Escherichia coli, KUB No. 5767, AR Bank # 371",16 µg/mL
same,MIC,"Enterobacterales; Escherichia coli, KUB No. 5768, AR Bank # 372",16 µg/mL
same,MIC,"Enterobacterales; Escherichia coli, KUB No. 5769, AR Bank # 373",32 µg/mL
same,MIC,"Enterobacterales; Escherichia coli, KUB No. 5770, AR Bank # 374",32 µg/mL
same,MIC,"Enterobacterales; Escherichia coli, KUB No. 5774, AR Bank # 378",8 µg/mL
same,MIC,"Enterobacterales; Escherichia coli, KUB No. 5779, AR Bank # 433",32 µg/mL
same,MIC,"Enterobacterales; Escherichia coli, KUB No. 5780, AR Bank # 434",16 µg/mL
same,MIC,"Enterobacterales; Escherichia coli, KUB No. 5781, AR Bank # 435",32 µg/mL
same,MIC,"Enterobacterales; Escherichia, KUB No. 57, AR Bank # 436 (row cut off)",32 µg/mL
same,MIC,"Enterobacterales; Klebsiella aerogenes, Enterobacter aerogenes, KUB No. 5658, AR Bank # 161",0.12 µg/mL
same,MIC,"Enterobacterales; Klebsiella aerogenes, Enterobacter aerogenes, KUB No. 5777, AR Bank # 431",1 µg/mL
same,MIC,"Enterobacterales; Klebsiella oxytoca, KUB No. 5644, AR Bank # 147",0.06 µg/mL
same,MIC,"Enterobacterales; Klebsiella oxytoca, KUB No. 5771, AR Bank # 375",0.12 µg/mL
same,MIC,"Enterobacterales; Klebsiella oxytoca, KUB No. 5776, AR Bank # 380",0.5 µg/mL
same,MIC,"Enterobacterales; Klebsiella ozaenae, KUB No. 5548, AR Bank# 51",16 µg/mL
same,MIC,"Enterobacterales; Klebsiella pnemnonine, KUB No. 5758, AR Bank # 362",64 µg/mL
same,MIC,"Enterobacterales; Klebsiella pneumoniae, KUB No. 55, AR Bank# 47",64 µg/mL
same,MIC,"Enterobacterales; Klebsiella pneumoniae, KUB No. 5531, AR Bank# 34",0.5 µg/mL
same,MIC,"Enterobacterales; Klebsiella pneumoniae, KUB No. 5536, AR Bank# 39",8 µg/mL
same,MIC,"Enterobacterales; Klebsiella pneumoniae, KUB No. 5537, AR Bank# 40",32 µg/mL
same,MIC,"Enterobacterales; Klebsiella pneumoniae, KUB No. 5538, AR Bank# 41",8 µg/mL
same,MIC,"Enterobacterales; Klebsiella pneumoniae, KUB No. 5540, AR Bank# 43",2 µg/mL
same,MIC,"Enterobacterales; Klebsiella pneumoniae, KUB No. 5541, AR Bank# 44",8 µg/mL
same,MIC,"Enterobacterales; Klebsiella pneumoniae, KUB No. 5543, AR Bank# 46",32 µg/mL
same,MIC,"Enterobacterales; Klebsiella pneumoniae, KUB No. 5546, AR Bank# 49",> 64 µg/mL
same,MIC,"Enterobacterales; Klebsiella pneumoniae, KUB No. 5603, AR Bank # 106",> 64 µg/mL
same,MIC,"Enterobacterales; Klebsiella pneumoniae, KUB No. 5604, AR Bank # 107",64 µg/mL
same,MIC,"Enterobacterales; Klebsiella pneumoniae, KUB No. 5606, AR Bank # 109",> 64 µg/mL
same,MIC,"Enterobacterales; Klebsiella pneumoniae, KUB No. 5609, AR Bank # 112",16 µg/mL
same,MIC,"Enterobacterales; Klebsiella pneumoniae, KUB No. 5610, AR Bank # 113",16 µg/mL
same,MIC,"Enterobacterales; Klebsiella pneumoniae, KUB No. 5612, AR Bank # 115",32 µg/mL
same,MIC,"Enterobacterales; Klebsiella pneumoniae, KUB No. 5614, AR Bank # 117",4 µg/mL
same,MIC,"Enterobacterales; Klebsiella pneumoniae, KUB No. 5617, AR Bank # 120",64 µg/mL
same,MIC,"Enterobacterales; Klebsiella pneumoniae, KUB No. 5622, AR Bank # 125",64 µg/mL
same,MIC,"Enterobacterales; Klebsiella pneumoniae, KUB No. 5623, AR Bank # 126",0.12 µg/mL
same,MIC,"Enterobacterales; Klebsiella pneumoniae, KUB No. 5626, AR Bank # 129",64 µg/mL
same,MIC,"Enterobacterales; Klebsiella pneumoniae, KUB No. 5632, AR Bank # 135",64 µg/mL
same,MIC,"Enterobacterales; Klebsiella pneumoniae, KUB No. 5635, AR Bank # 138",> 64 µg/mL
same,MIC,"Enterobacterales; Klebsiella pneumoniae, KUB No. 5636, AR Bank # 139",8 µg/mL
same,MIC,"Enterobacterales; Klebsiella pneumoniae, KUB No. 5637, AR Bank # 140",16 µg/mL
